Measured values reported in patent US10064911B2, “Peptides for treating cancer” (The Board of Trustees of the University of Illinois, priority 2015, dated 2018).
“Also recorded” adds a separate entry of the source.

Key:
[1] = test system: MDA-MB-231 human breast cancer cells; experiment: Triple negative breast cancer xenograft: tumor growth and neovascularization; format: in vivo, Nude mice; conditions: for number of vessels outside of the tumor: H&E staining
Excerpt: FIG. 8A plots tumor growth curve in xenograft model; mean is shown; n=8 mice per group. FIG. 8B plots the number of vessels per area counted outside of the tumor; n=25 fields/mouse; N=5 mice; *, p<0.05; **, p<0.01.
The effect of EBIN on growth rate of triple negative (estrogen receptor [ER], progesterone receptor [PR] and human epidermal growth factor receptor-2 [HER-2] are not expressed in this cell line) human breast cancer cells using a xenograft model was investigated. Nude mice (n=8 mice per group) were injected with 3×10^6 MDA-MB-231 human breast cancer cells into the upper left mammary fat pad. All mice developed the tumor by day 13. At that time point, mice were randomized and divided by 5 groups and each group received the treatment. Study was terminated at day 24 when the tumor reached 2000 mm^3 in size. The treatment with control peptide and EBIN was performed daily for 7 days. EBIN and control peptide were delivered via tail vein injection. Control peptide was injected at 5 μM/kg body weight. EBIN was injected at 1 μM/kg and 5 μM/kg body weight.
Treatment with taxol was performed via intraperitoneal injection at 10 μM/kg body weight for 4 days. Tumor size was measured 3 times a week.
To correlate the effect of EBIN treatment with tumor neovascularization, tumor tissue was collected, fixed and stained with hematoxylin and eosin (H&E). Number of […] outside of the tumor mass was scored and normalized per area.

[2] = test system: HMVECs; experiment: Thrombin-induced Ca2+ release from ER stores in HMVECs (Fura 2-AM); format: cell-based; conditions: pre-treatment with 5 μg/ml for 20 min prior to thrombin stimulation
Protocol: (FIG. 4A) HMVECs pre-treated with AP-attached IP3R3 peptide or control (AP) peptide were loaded with Fura 2-AM and 340/380 ratio was calculated after stimulation of cells with thrombin (50 nM) in the absence and in the presence of extracellular Ca^2+. Arrow, time of thrombin addition. […] The increase is normalized to control non-treated cells from the same experiment (n=4).
[…] contains EB binding consensus motif, Ser/Thr-x-Ile-Pro (SxIP) (SEQ ID NO: 5). […] The role of the interaction between EB3 and IP3R3 was recently described by Geyer et al., Cell Rep 12(1):79-89; 2015. […] The effects of IP3R3 peptide and taxol were compared in regulating Ca^2+ release.

[3] = test system: blood vessels ingrowth into matrigel plugs; experiment: In vivo ectopic matrigel plug angiogenesis; parameters: species or system mice; conditions: for number of vessels / vessel formation in matrigel plugs: matrigel with heparin and VEGF, plugs removed at 96 hours, HE staining
Protocol: (§1) Group 1 was treated with control peptide and group 3 was treated with Myr-EBIN at 0, 36 and 60 hrs; group 2 received only 36 and 60 hour treatment. […] Scale bar, 200 μm.
EBIN effect on blood vessels in growth in an in vivo model of ectopic matrige angiogenesis was also investigated. Blood vessel in growth matrigel was pre-mixed with heparin and VEGF but not with endothelial cells, and i.p. injected into low abdomen of mice. There were two 400 μL plugs per mouse. […] These vessels were functional and perfused with blood that is apparent from the presence of red blood cells inside the vessels. In addition, mice were treated with EBIN at the time of matrigel injection (FIG. 7C,2; Group 2) or 36 hrs after matrigel (FIG. 7C,3; Group 3). Matrigel plugs were removed at 96 hours, fixed and stained with HE to assess the vessel formation.

[4] = Acute toxicity testing in vivo (eye); parameters: species or system C57BL/6 mice
Protocol: Representative images of Fundus Fluorescein Angiography F and corresponding Optical Coherence Tomography (FIG. 12B) at day 8 of intravitreal treatment with EBIN (1 μg/eye).
A short term study is designed to assess safety of administration in vivo. C57BL/6 mice (n=10, 5 mice per group/treatment route) are randomized and divided into two groups. The first group is treated with EBIN in the right eye via eye drops delivered twice daily, 5 μg per eye (10 μl) and, the second group is treated with intravitreal injection of EBIN in the right eye at the maximum dose, 1 μg per eye (2 μl) on day one. The intravitreal injection is performed under ketamine/xylazine (100 mg/5 mg/kg) anesthesia. Both groups are monitored daily for general health including body weight as well as any eye abnormalities including opacity, exophthalmia enophthalmia, conjunctivitis, abnormal secretions or crusting, and corneal ulcers for a period of 8 days. Animals are subsequently subjected to fluorescein angiography and OCT imaging.

[5] = test system: human VEGF-induced vascular leakage; experiment: VEGF-induced subcutaneous vascular leakage of albumin-bound Evans Blue; format: in vivo, Balb/cJ mice; conditions: pretreated 1 μM/kg; human VEGF 50 ng/kg intradermal; measured at 620 nm
Protocol: A study investigating whether injection of the EBIN prevented vascular endothelial growth factor (VEGF)-induced microvascular leakage was carried out. Balb/cJ mice were pretreated with the EBIN peptide (1 μM/kg) or a control peptide (2T→A mutation) and then human VEGF (50 ng/kg body weights) was intradermally injected to induce vascular leakage of albumin-bound Evans Blue (see FIG. 6A). In addition, the formamide-extracted Evans Blue was quantified spectrophotometically at 620 nm and corrected for hemoglobin (740 nm) and skin weight (see FIG. 6B).

[6] = test system: laser-induced choroidal neovascularization (CNV); conditions: 1 μg/eye single intravitreal injection; day 15; versus control peptide
Protocol: Quantification of the area of fluorescein leakage (FIG. 11D) and lesion (FIG. 11E) using images shown in (FIG. 11A) and (FIG. 11C); n=6-9 mice per group; **, p<0.01. […] Comparison between groups were performed using ANOVA.
To assess the barrier-protective and anti-angiogenic activities of EBIN, EBIN is tested in murine models of CNV. In addition to treatment with EBIN, LEAF™ antibody (a monoclonal rat antibody against mouse VEGF-A) and control peptide (Myr-FAEIPTI), were used as positive and negative experimental controls, respectfully.
Mice were anesthetized with a mixture of ketamine/xylazine (100 mg/5 mg/kg IP) and their pupils were dilated with a topical application of Cyclomydril (Alcon Laboratories, Fort Worth, Tex.). The fundus was viewed with an imaging camera, and laser photocoagulation was induced using the image-guided laser system (Micron IV, Phoenix Research Laboratories, Pleasanton, Calif.). Four laser burns at equal distance from the optic nerve were induced one by one in right eye by a green Argon laser pulse with a wavelength of 532 nm, a fixed diameter of 50 μm, duration of 70 ms, and power levels from 210-250 mW. Appearance of bubble or a small subretinal hemorrhage (diameter <1 mm) at the laser spot serves to indicate rupture of the Bruch's membrane and as confirmation of laser-induced CNV. This procedure was performed only on the right eye of each mouse. […]

[7] = test system: endothelial cell; format: cell-based; conditions: data not shown
[8] = test system: human umbilical vein endothelial cells; experiment: In vitro tubulogenesis in 2D matrigel model; format: cell-based; conditions: 1 μM; assessed 16 hours after plating on matrigel
Protocol: as §1
The effect of EBIN on in vitro tubulogenesis and in vivo angiogenesis was investigated using matrigel models. A single cell suspension of human umbilical vein endothelial cells was plated above matrigel-coated wells in the presence of 1 μM EBIN or control peptide; tube formation was assessed 16 hours later.

Compound	number of vessels outside of the tumor ([1]; 10 μM/kg intraperitoneal for 4 days)	tumor growth ([1]; intraperitoneal injection at 10 μM/kg body weight for 4 days)	release of Ca2+ from ER in response to thrombin [2]	number of vessels / vessel formation in matrigel plugs [3]	effect of post-treatment versus treatment on vessel ingrowth ([3]; treatment started 36 hrs after matrigel versus at the time of matrigel injection)	toxicity ([4]; eye drops 5 μg per eye twice daily or intravitreal 1 μg per eye, 8 days, with or without CNV induction)	crystals/precipitates in the eye ([4]; intravitreal 1 μg/eye, day 8)	changes in retinal vasculature, retinal pigment epithelium, choroid, sclera ([4]; intravitreal 1 μg/eye, day 8, angiography and OCT)	number of vessels outside of the tumor ([1]; 5 μM/kg, tail vein)	tumor growth rate ([1]; tail vein injection, 1 μM/kg body weight daily for 7 days)	tumor size ([1]; tail vein injection, 5 μM/kg body weight daily for 7 days)	subcutaneous vascular leak of albumin-bound Evans Blue [5]	vascular leakage (area of fluorescein leakage) [6]	endothelial cell death or cell cycle arrest [7]	tube formation (tubulogenesis) [8]
CC(=O)O[C@H]1C(=O)[C@@]2(C)[C@H]([C@H](OC(=O)c3ccccc3)[C@]3(O)C[C@H](OC(=O)[C@H](O)[C@@H](NC(=O)c4ccccc4)c4ccccc4)C(C)=C1C3(C)C)[C@]1(OC(C)=O)CO[C@@H]1C[C@@H]2O [taxol, reference compound]	significantly reduced	significant delay in the tumor growth	inhibits release of Ca^2+ from ER to the same extent as IP3R3 peptide	–	–	–	–	–	–	–	–	–	–	–	–
FAEIPTI [reference compound]	–	–	–	newly formed blood vessels grew into the matrigel	–	–	–	–	–	–	–	–	–	–	–
FTEIPTI [EBIN]	–	–	–	markedly reduced	post-treatment was as effective as a treatment	No toxicity was observed	forms small crystals/precipitates inside of various humor	no visible changes	significantly reduced; also recorded: superior effect as compared to taxol	developed the tumor at the same rate as untreated mice	reduction in the tumor size; also recorded: significantly smaller as compared to control untreated group	significantly inhibited subcutaneous vascular leak	significantly reduced	did not induce endothelial cell death or cell cycle arrest	significantly abolished formation of tubes; also recorded: inhibited tubulogenesis
